Experimental data: patent US11974988B2, “Neuroprotective compositions and methods of using the same” (The Board of Supervisors of Louisiana State Univer …, priority 2018, dated 2024)
Values after ≈ are worked out from the molar mass of the structure shown. “Also recorded” adds a separate entry of the source. Where two headings read alike, the source gives them in different places.

Legend:
[1] = test system: activity-regulated Gln/MeAIB transport (SNAT activity) in hippocampal neurons; test: Activity-regulated (spontaneous, 4-AP- or K+-stimulated) [14C]-MeAIB transport in primary hippocampal neurons; type: cell-based, rat; set-up: block of transport activity: dose or concentration left out as unconfirmed
[2] = SKA-41 concentrations in plasma and brain by LC/MS after i.p. injection; type: in vivo; conditions: rat; for concentration at 1 h: male, intraperitoneal, 10 mg/kg i.p., n=3 rats
Protocol: Twelve week-old male Sprague-Dawley rats were purchased from Charles River Laboratories (Wilmington, Mass.) and housed in microisolator cages with rodent chow and autoclaved water ad libitum. All experiments were in accordance with National Institutes of Health guidelines and approved by the University of California, Davis Institutional Animal Care and Use Committee.
SKA-41 is dissolved in Miglyol 812 neutral oil (caprylic/capric triglyceride; Trade name Neobee M5, Spectrum Chemicals, Gardena, Calif., USA) at 1 mg/mL and injected intraperitoneally at 10 mg/kg. After 1 hour, rats (n=3) are subjected to cardiac puncture under deep isoflurane anesthesia and then sacrificed before removing the brain. Blood is collected into EDTA blood sample collection tubes. Plasma is separated by centrifugation and samples stored at −80° C. pending analysis.
Commercial SPE cartridges (Hypersep C18, 100 mg, 1 mL) are purchased from Thermo Scientific (Houston, Tex., U.S.A). Before the extraction, cartridges are conditioned with acetonitrile, 2×1 mL, followed by water 2×1 mL. After loading the SPE cartridges with plasma samples, they are washed with 2×1 mL of 20% acetonitrile in water followed by elution with a 2×1 mL of acetonitrile. Elute fractions are collected and evaporated to dryness. The residues are reconstituted to solution using appropriate volume of acetonitrile and used for LC-MS analysis.
Brain samples are treated as following: 4.0 mL of acetonitrile is added to 200 mg of tissue sample and homogenized thoroughly using a T25 digital ULTRA-TURRAX® homogenizer (IKA® Works Inc., NC, USA). The homogenized samples are centrifuged for 10 min at 4000 rpm, the supernatant is separated and evaporated under a constant air flow as described above. The residues are reconstituted using appropriate volume of acetonitrile. The reconstituted material is loaded onto the preconditioned SPE cartridges it is then eluted with 2 mL of acetonitrile. Load and elute fractions are collected and evaporated to dryness. The residues are reconstituted to solution with 200 μL acetonitrile and used for LC-MS analysis. […]
Using Heated electrospray ionization source (HESI II) in positive ion mode, capillary temperature 300° C., vaporizer temperature: 250° C., spray voltage 3000 V, sheath gas pressure (N2) 30 units, auxiliary gas pressure (N2) 5 units, ion sweep gas pressure (N2) 1 unit, SKA-41 was analyzed by the selective reaction monitoring (SRM) transition of its molecular ion peak 261.0 (M+1)^+ into 175.0 and 133.0 m/z. An 8-point calibration curve spanning a concentration range from 50 nM to 10 μM range was developed for quantification.

[3] = Max. solubility (Table 1); type: physicochemical

Nc1nc(-c2ccc(OC(F)(F)F)cc2)cs1 [SKA-41, 4-(4-(Trifluoromethoxy)phenyl)thiazol-2-amine]
block of transport activity [1]: ~90% | inhibition at 10 µM ([1]; Rattus norvegicus, Hippocampal neuron, at 10 μM, read-out: block / inhibition of transport activity): ~90% | IC50 ([1]; Rattus norvegicus, Hippocampal neuron, hippocampal neurons in vitro, 14C-MeAIB 20 μM, read-out: IC50 to inhibit activity-regulated Gln/MeAIB transport): ~2 µM | Active (annotation beside the compound name: active vs inactive derivatives) ([1]; Table 1: SKA-41, and active and inactive derivatives): SKA-41 Active CAS no. 436151-95-0 (Oakwood Chemical) | inhibition of spontaneous activity-regulated 14C-MeAIB transport, in words ([1]; screens, 10 μM, GABA 2 mM): active; also recorded: blocked spontaneous transport activity; also recorded: inhibited spontaneous transport activity | Kp at 1 h ([2]; Sprague-Dawley, brain/plasma, ip, 10 mg/kg i.p. in Miglyol 812, 1 h, 3 male rats, read-out: brain/plasma ratio): ~7 | concentration at 1 h ([2]; Sprague-Dawley, brain, read-out: brain concentration, average): 12.6 µM | concentration at 1 h ([2]; Sprague-Dawley, plasma, read-out: plasma concentration, average): 1.77 µM | brain penetration (brain/plasma ratio) relative to riluzole ([2]; in vivo): seven times higher | solubility [3]: 50 µM (≈ 13 µg/mL)
